Drawing on patent US20050209278A1, “Piperidinyl- and piperazinyl-sulfonylmethyl hydroxamic acids and their use as protease inhibitors” (priority 2002, published 2005), this text covers Ki for 21 molecules.

One assay deals with T1, MMP-13 (Homo sapiens, UniProt P45452).
T1 construct: made in house; host or cells: baculovirus / insect cells
Briefly: In vitro MMP inhibition, Ki determination (fluorogenic substrate II). The format is biochemical. Conditions: value not in parenthesis; read-out: MMP-13 Ki. The method in brief:
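Room-temperature, 1 h incubation of APMA-activated recombinant human MMP-13 with 4 μM quenched substrate II (cleaved at Gly-Leu) in pH 7.5 Tris/NaCl/CaCl2 buffer. Inhibition appears as a slowed rise in 330/420 nm fluorescence. Single low enzyme and substrate levels were used for Ki.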

The target of the next assay is T2, MMP-2 (Homo sapiens, UniProt P08253).
T2 construct: made in house; host or cells: MMP-2-transfected p2AHT2 cells
T2 sequence (P08253 110-660): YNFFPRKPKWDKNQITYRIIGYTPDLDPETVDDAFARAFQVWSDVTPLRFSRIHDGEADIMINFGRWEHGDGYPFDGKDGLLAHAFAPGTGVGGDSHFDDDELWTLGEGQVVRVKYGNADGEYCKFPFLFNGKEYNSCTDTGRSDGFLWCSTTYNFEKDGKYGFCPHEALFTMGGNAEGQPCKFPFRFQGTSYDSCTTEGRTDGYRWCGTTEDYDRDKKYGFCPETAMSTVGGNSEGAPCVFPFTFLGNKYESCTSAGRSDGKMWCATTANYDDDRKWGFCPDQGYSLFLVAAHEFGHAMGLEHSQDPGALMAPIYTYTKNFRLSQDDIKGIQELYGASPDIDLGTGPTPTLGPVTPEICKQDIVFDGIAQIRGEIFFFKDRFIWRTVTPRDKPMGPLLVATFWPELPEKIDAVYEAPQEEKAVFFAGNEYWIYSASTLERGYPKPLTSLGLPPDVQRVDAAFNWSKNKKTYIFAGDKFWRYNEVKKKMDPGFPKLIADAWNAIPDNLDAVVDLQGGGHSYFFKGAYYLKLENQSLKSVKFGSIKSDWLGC
The assay is described as above. It counts as biochemical. As to conditions: value not in parenthesis; read-out: MMP-2 Ki.

SMILES strings stand for the structures.

A word on the Ki: it is a dissociation constant, usually derived from enzyme kinetics or from competition with a known ligand. `COCCN1CCC(C(=O)NO)(S(=O)(=O)N2CCN(c3ccc(OCC(F)(F)F)cc3)CC2)CC1` [Example 119]: the values for the Ki at MMP-13 and at MMP-2 were 0.79 nM and 1.19 nM, respectively.

`CCCCOc1ccc(N2CCN(S(=O)(=O)C3(C(=O)NO)CCN(c4ccc(O)cc4)CC3)CC2)cc1` [Example 121]: the Ki was determined as 0.68 nM at MMP-13 and 2.15 nM at MMP-2.

Consider `O=C(c1cccnc1)N1CCC(C(=O)NO)(S(=O)(=O)N2CCN(c3ccc(OCCCC(F)(F)F)cc3)CC2)CC1` [Example 122], for which the Ki on MMP-13 is 0.03 nM; at MMP-2 it was 0.34 nM.

Turning to `CCCCOc1ccc(N2CCN(S(=O)(=O)C3(C(=O)NO)CCN(C(=S)N(C)C)CC3)CC2)cc1` [Example 123], the figures for the Ki on MMP-13 and at MMP-2 were 0.74 nM and 1.28 nM, respectively.

Consider `CCCCOc1ccc(N2CCN(S(=O)(=O)C3(C(=O)NO)CCN(C(=O)N4CCOCC4)CC3)CC2)cc1` [Example 124], for which the figures for the Ki at MMP-13 and at MMP-2 were 0.121 nM and 0.193 nM, respectively.

With `CCCCOc1ccc(N2CCN(S(=O)(=O)C3(C(=O)NO)CCN(c4ccc(C)cn4)CC3)CC2)cc1` [Example 125], the Ki on MMP-13 turned out to be 1.67 nM; on MMP-2, 1.8 nM.

With `CCCCOc1ccc(N2CCN(S(=O)(=O)C3(C(=O)NO)CCN4CCCC4C3)CC2)cc1F` (stereo not drawn) [Example 126], the Ki at MMP-13 worked out at 7.06 nM; at MMP-2, 8.24 nM.

For `CCCCOc1ccc(N2CCN(S(=O)(=O)C3(C(=O)NO)CCN(C(=O)c4cc5ccccc5o4)CC3)CC2)cc1` [Example 127], the inhibitory constant (Ki) at MMP-13 is 6.18 nM; on MMP-2, 6.02 nM.

For the molecule `CC(C)CCOc1ccc(N2CCN(S(=O)(=O)C3(C(=O)NO)CCN(C4CC4)CC3)CC2)cc1` [Example 128], the Ki on MMP-13 was found to be 0.211 nM; on MMP-2, 0.785 nM.

Regarding `CCCCOc1ccc(N2CCN(S(=O)(=O)C3(C(=O)NO)CCN(c4ccc(OCCOC)nn4)CC3)CC2)cc1` [Example 129], the Ki at MMP-13 came to 0.302 nM; on MMP-2 it was 0.508 nM.

Regarding `CCCCOc1ccc(N2CCN(S(=O)(=O)C3(C(=O)NO)CCN(c4ccc(C)nc4)CC3)CC2)cc1` [Example 131], the Ki at MMP-13 was determined as 0.621 nM; at MMP-2, 1.39 nM.

As for `O=C1c2ccccc2C(=O)N1CCCCc1ccc(N2CCN(S(=O)(=O)C3(C(=O)NO)CCOCC3)CC2)nc1` [Example 132], the Ki at MMP-13 was 0.395 nM; at MMP-2, 1.2 nM.

Take `CC(C)CCc1ccc(N2CCN(S(=O)(=O)C3(C(=O)NO)CCOCC3)CC2)nc1` [Example 133]: the Ki at MMP-13 worked out at 0.227 nM; on MMP-2, 0.251 nM.

For the molecule `CCCc1ccc(N2CCN(S(=O)(=O)C3(C(=O)NO)CCOCC3)CC2)nc1` [Example 136], the figures for the Ki at MMP-13 and at MMP-2 were 0.423 nM and 0.142 nM, respectively.

With `Cc1ccc(N2CCN(S(=O)(=O)C3(C(=O)NO)CCOCC3)CC2)nc1` [Example 138], the figures for the Ki at MMP-13 and on MMP-2 were 1.15 nM and 0.469 nM, respectively.

For `CCCCOc1ccc(N2CCN(S(=O)(=O)C3(C(=O)NO)CCN(c4cc(C)ccn4)CC3)CC2)cc1` [Example 139], the Ki on MMP-13 was found to be 2.03 nM; on MMP-2, 2.18 nM.

For `CCCCOc1ccc(N2CCN(S(=O)(=O)C3(C(=O)NO)CCN(c4cnccn4)CC3)CC2)cc1` [Example 140], the Ki at MMP-13 came to 0.446 nM; on MMP-2, 0.672 nM.

As for `CCCCOc1ccc(N2CCN(S(=O)(=O)C3(C(=O)NO)CCN(C(=O)OCCOC)CC3)CC2)cc1` [Example 141], the Ki on MMP-13 was 0.151 nM; at MMP-2, 0.266 nM.

For `CCCCOc1ccc(N2CCN(S(=O)(=O)C3(C(=O)NO)CCN(c4ccc(OC)nc4)CC3)CC2)cc1` [Example 142], the figures for the Ki on MMP-13 and on MMP-2 were 0.505 nM and 0.978 nM, respectively.

For the molecule `CCCCOc1ccc(N2CCN(S(=O)(=O)C3(C(=O)NO)CCN(C(=O)c4cc5ccccc5s4)CC3)CC2)cc1` [Example 143], the Ki at MMP-13 is 7.05 nM; on MMP-2, 8.97 nM.

Consider `COCCN1CCC(C(=O)NO)(S(=O)(=O)N2CCN(c3ccc(OCC(F)(F)C(F)(F)F)cc3)CC2)CC1` [Example 144], for which the figures for the inhibitory constant (Ki) on MMP-13 and at MMP-2 were 0.306 nM and 0.69 nM, respectively.
